# Experimental data from article PMC12582971, “NeuproGemp, a polyphenol-rich botanical formula, ameliorates Alzheimer’s-like pathology in APP/PS1 mice via inhibition of human glutaminyl cyclase” (Frontiers in Pharmacology, 2025).
# Molecular target: T1, human glutaminyl cyclase (hQC) (Homo sapiens, UniProt Q16769)
# T1 construct: covering residues Ala33 to Leu361, was cloned into the pQE-80L expression vector; polyhistidine tag; made in house; host or cells: E. coli BL21 (DE3)
# Assay: hQC inhibition assay (coupled spectrophotometric, H-Gln-Gln-OH substrate)
# Assay type: biochemical
# Conditions: for inhibitory effect on hQC (in words): dose-response assay; for IC50: 0.1 μM hQC, 1 mM H-Gln-Gln-OH, 25 °C, pH 8.0, mean ± SD, three experiments, read-out: IC50 against hQC
# Experimental: The coding sequence of human glutaminyl cyclase (hQC), covering residues Ala33 to Leu361, was cloned into the pQE-80L expression vector utilizing the restriction sites BamHI and HindIII. This recombinant plasmid was introduced into E. coli BL21 (DE3) cells through heat shock transformation. For protein expression, the transformed E. coli cells were grown in Luria-Bertani (LB) medium supplemented with 100 mg/L ampicillin at 37 °C. Once the optical density at 600 nm (OD600) reached 0.6, protein expression was induced using 0.1 mM isopropyl β-D-1-thiogalactopyranoside (IPTG), and the culture was incubated at 24 °C for 48 h, optimizing for soluble protein yield under reduced temperature conditions. After induction, the cells were harvested by centrifugation at 6,000 rpm for 20 min. The resulting cell pellet was resuspended in a lysis buffer containing 50 mM Tris-HCl (pH 8.5), 150 mM NaCl, and 20 mM imidazole. Cell disruption was performed using high-pressure homogenization via a microfluidizer (Microfluidics). The lysate was clarified through centrifugation, and the soluble protein fraction was purified using nickel-nitrilotriacetic acid (Ni-NTA) affinity chromatography, leveraging the polyhistidine tag for selective binding to the resin. The bound hQC protein was eluted and further purified using standard chromatographic techniques.
# The inhibitory effects of various compounds on human glutaminyl cyclase (hQC) were assessed using a validated spectrophotometric assay. In this assay, glutamic dehydrogenase (EC 1.4.1.3; Sigma-Aldrich) was utilized as a coupling enzyme to indirectly quantify hQC activity, employing H-Gln-Gln-OH (Bachem) as the specific substrate. The reaction mixture consisted of 50 mM Tris-HCl (pH 8.0), 0.25 mM NADH, 30 U of glutamic dehydrogenase, 15 mM α-ketoglutaric acid, and 0.1 μM hQC. Inhibitors were introduced to the reaction mixture and allowed to incubate for 5 min at 25 °C to promote interaction with the enzyme. The enzymatic reaction was initiated by adding 1 mM of the substrate, and the progression was monitored by measuring the absorbance at 340 nm, corresponding to the oxidation of NADH. The IC50 values for the inhibitors were calculated by plotting initial reaction rates against the logarithmic concentrations of the inhibitors. Nonlinear regression fitting was conducted using GraphPad Prism 6 software, enabling accurate quantification of the inhibitors’ potencies and facilitating a detailed analysis of their inhibitory effects on hQC.
# The enzymatic activity of recombinant hQC was measured using a coupled spectrophotometric assay with H-Gln-Gln-OH as substrate and glutamic dehydrogenase as a coupling enzyme. […] Initial reaction rates were monitored by measuring NADH oxidation at 340 nm, and IC50 values were calculated using nonlinear regression in GraphPad Prism 6. Data are presented as mean ± SD from three independent experiments. Lower IC50 values indicate stronger inhibition of hQC activity.
# T1 sequence (Q16769 33-361): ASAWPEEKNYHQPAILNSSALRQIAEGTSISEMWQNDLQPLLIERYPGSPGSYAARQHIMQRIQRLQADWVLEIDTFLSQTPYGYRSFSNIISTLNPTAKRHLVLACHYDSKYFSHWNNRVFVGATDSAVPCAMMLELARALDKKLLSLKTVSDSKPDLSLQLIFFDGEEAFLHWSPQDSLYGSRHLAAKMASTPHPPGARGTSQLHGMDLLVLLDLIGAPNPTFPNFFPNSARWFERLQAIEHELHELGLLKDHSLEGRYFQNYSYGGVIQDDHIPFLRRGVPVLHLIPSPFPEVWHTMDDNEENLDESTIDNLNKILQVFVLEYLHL
hQC activity suppression at 100 μM,inhibitory effect on hQC (in words),IC50 [nM],SMILES
–,only weak inhibitory effects,4190,"O=C(OCC1OC(OC(=O)c2cc(O)c(O)c(O)c2)C(O)C(OC(=O)c2cc(O)c(O)c(O)c2)C1O)c1cc(O)c(O)c(O)c1 (stereo not drawn) [GG3, 1,3,6-Trigalloylglucose]"
–,–,1430,"O=C(OCC1OC(OC(=O)c2cc(O)c(O)c(O)c2)C(OC(=O)c2cc(O)c(O)c(O)c2)C(OC(=O)c2cc(O)c(O)c(O)c2)C1O)c1cc(O)c(O)c(O)c1 (stereo not drawn) [GG4, 1,2,3,6-Tetragalloylglucose]"

# Further lines, the compound ahead of its results:
SMILES,hQC activity suppression at 100 μM,inhibitory effect on hQC (in words),IC50 [nM]
O=C(/C=C/c1ccccc1)OC[C@H]1O[C@@H](OC(=O)c2cc(O)c(O)c(O)c2)[C@H](O)[C@@H](O)[C@@H]1O [1-o-galloyl-6-o-cinnamoylglucose],less than 50%,minimal to no significant inhibition,–
OCc1ccc(O[C@@H]2O[C@H](CO)[C@@H](O)[C@H](O)[C@H]2O)cc1 [Gastrodin],less than 50%,only weak inhibitory effects,–
C[C@@]12C[C@@]3(O)O[C@@H](O1)[C@]1(COC(=O)c4ccccc4)[C@H]3C[C@@]12O[C@@H]1O[C@H](CO)[C@@H](O)[C@H](O)[C@H]1O [Paeoniflorin],less than 50%,minimal to no significant inhibition,–
